The compounds below were run on AEA cellular uptake, U937 cells (assay: [3H]-AEA cellular uptake inhibition in U937 cells). Conditions: Homo sapiens, U-937; Table 1; U937 cells, 100 nM AEA; read-out: AEA uptake inhibition IC50.
Assay type: cell-based
Experimental: [^3H]-AEA Cellular Uptake
Screening for AEA cellular uptake inhibition was performed in a semi-automated procedure: Pipetting and washing steps were performed by a Biomek3000 laboratory workstation. First, required amounts of U937 cells were centrifuged at 100×g for 5 min and resuspended in RPMI (37° C.) to a final concentration of 2×10^6 cells/mL. Then, 250 μL of cell suspension (0.5×10^6 cells per sample) were transferred into AquaSil™ silanized glass vials (Chromacol 1.1-MTV) in 96-well format. After addition of 5 μL vehicle (DMSO) or compounds the cells were incubated at 37° C. for 15 min. As positive controls OMDM-2 and UCM707 were used at 10 μM in each run. The ETI-T compounds were measured at up to 7 concentrations in triplicates from 100 pM-100 μM. After pre-incubation, a mixture of 0.5 nM[ethanolamine-1-^3H]-AEA, (60 Ci/mmol) and 99.5 nM of cold AEA (final 100 nM) was added and samples were incubated at 37° C. for another 15 min. The reaction was stopped by rapid filtration over UniFilter-96 GF/C filters (PerkinElmer) pre-soaked with PBS 0.25% BSA. Cells were washed three times with 100 μL ice-cold PBS buffer containing 1% fatty acid free BSA. After drying, 45 μL MicroScint 20 scintillation cocktail (PerkinElmer, Waltham, Mass., US) was added to the wells and the plate was sealed. Radioactivity was measured by liquid scintillation counting on a PerkinElmer Wallac Trilux MicroBeta 1450 during 2 min. Non-specific binding of [^3H]AEA (100 nM) to the glass vials was never higher than 10%. IC50 values were calculated by GraphPad® by non-linear regression using the built-in log(inhibitor) vs. response-variable slope (four parameters) function.
Statistical analysis and IC50 values were determined using GraphPad® Prism 5.0 (GraphPad® Software, San Diego, Calif., US). Inhibition curves were obtained by non-linear regression using the built-in log(inhibitor) vs. response-variable slope (four parameters) function. Results were calculated as % of vehicle control of the corresponding fraction (cells, aqueous phase) if not mentioned else. In vivo results are shown in absolute values and were analyzed by a one-way ANOVA following a Tukey's multiple comparison test or student's t-test. If not indicated else the results were compared vs. vehicle (CTRL). *** P<0.001, ** P<0.01, * P<0.05, ns=not significant P>0.05.

Compound	IC50
CCN1C(=O)/C(=C/c2ccc(O)cc2)S/C1=N\c1ccc(F)cc1 [Compound 8]	0.268 µM
Cc1ccsc1/C=C1\S/C(=N\c2ccccc2)N(C(C)C)C1=O [Compound 13]	0.51 µM
CCN1C(=O)/C(=C/c2ccc(C)cc2)S/C1=N\c1ccc(OC)cc1 [Compound 9]	0.334 µM
CCN1C(=O)/C(=C/c2cc(I)c(O)c(OC)c2)S/C1=N\c1ccccc1 [Compound 17]	0.594 µM
CCCOc1cc(/C=C2\S/C(=N\c3ccccc3C)N(c3ccccc3C)C2=O)ccc1O [Compound 15]	0.553 µM
C#CCOc1ccc(/C=C2\S/C(=N\c3ccc(OC)cc3)N(CCc3c[nH]c4ccccc34)C2=O)cc1 [Compound 7]	0.266 µM
C=CCc1cc(/C=C2\S/C(=N\c3ccccc3)N(Cc3ccco3)C2=O)cc(OC)c1O [Compound 20]	0.661 µM
O=C1/C(=C/c2ccc(O)cc2)S/C(=N\c2ccccc2)N1Cc1ccco1 [Compound 11]	0.434 µM
COc1ccc(/C=C2\S/C(=N\c3ccccc3)N(c3ccccc3)C2=O)cc1 [Compound 14]	0.542 µM

Same assay, conditions: Homo sapiens, U-937; Table 4; U937 cells; read-out: AEA uptake IC50

Compound	IC50
CCOc1cc(/C=C2/S/C(=N\c3ccc(C)c(Cl)c3)N(c3ccc(C)c(Cl)c3)C2=O)ccc1O [ETI-T-435]	1.43 µM
CCN1C(=O)/C(=C/c2ccc(O)cc2)S/C1=N\c1ccc(F)cc1 [Compound 8]	0.268 µM
CCOc1cc(/C=C2\S/C(=N\c3ccccc3)N(CCOC)C2=O)ccc1O [ETI-T-410]	1.3 µM
Cc1ccsc1/C=C1\S/C(=N\c2ccccc2)N(C(C)C)C1=O [Compound 13]	0.51 µM
CCN1C(=O)/C(=C/c2ccc(C)cc2)S/C1=N\c1ccc(OC)cc1 [Compound 9]	0.334 µM
CCOc1cc(/C=C2/S/C(=N/c3ccc(OC)cc3)N(c3ccc(OC)cc3)C2=O)ccc1O [ETI-T-445]	1.05 µM
CCN1C(=O)/C(=C/c2cc(I)c(O)c(OC)c2)S/C1=N\c1ccccc1 [Compound 17]	0.594 µM
CCCOc1cc(/C=C2\S/C(=N\c3ccccc3C)N(c3ccccc3C)C2=O)ccc1O [Compound 15]	0.553 µM
C#CCOc1ccc(/C=C2\S/C(=N\c3ccc(OC)cc3)N(CCc3c[nH]c4ccccc34)C2=O)cc1 [Compound 7]	0.266 µM
CCOc1cc(/C=C2/S/C(=N/c3ccc(F)cc3)N(c3ccc(F)cc3)C2=O)ccc1O [ETI-T-438]	1.35 µM
C=CCc1cc(/C=C2\S/C(=N\c3ccccc3)N(Cc3ccco3)C2=O)cc(OC)c1O [Compound 20]	0.661 µM
COc1ccc(C=C2SC(=Nc3ccc(F)cc3)N(c3ccc(F)cc3)C2=O)cc1OC [ETI-T-343]	1.59 µM
Cc1ccc(/N=C2\S/C(=C\c3ccc(O)c(Cl)c3)C(=O)N2c2ccc(C)cc2)cc1 [ETI-T-444]	1.15 µM
O=C1/C(=C/c2ccc(O)cc2)S/C(=N\c2ccccc2)N1Cc1ccco1 [Compound 11]	0.434 µM
COc1ccc(/C=C2\S/C(=N\c3ccccc3)N(c3ccccc3)C2=O)cc1 [Compound 14]	0.542 µM

Same assay, conditions: Table 1; U937 cells, 100 nM AEA; read-out: AEA uptake inhibition IC50

Compound	IC50
CCOc1cc(/C=C2\S/C(=N\c3cc(Cl)ccc3C)NC2=O)ccc1O [Compound 3]	0.138 µM

From US10300048B2, “Thiazolidinones as cellular anandamide uptake inhibitors and their use in the treatment of psychiatric or neurological disorders and inflammation, in particular neuroinflammation” (UNIVERSITAT BERN, priority 2014, dated 2019)
